Reference: ChEMBL document CHEMBL5143697, “Phenethoxy Derivatives with Anti-inflammatory Activities from the Betelnut Endophytic Trichoderma asperellum G10” (J Nat Prod, 2022)

System: RAW264.7
Experiment: Antiinflammatory activity against mouse RAW264.7 cells assessed as inhibition of LPS-induced NO production preincubated for 1 hr followed by LPS stimulation and measured after 36 hrs by Griess reagent based assay
Format: functional, cell-based

C[C@@H]1[C@H](OCCc2ccccc2)O[C@H](C)[C@H]1CO
IC50: 48.3 µM
